Measurements: ChEMBL document CHEMBL4311943, “3-[(1S,2S,3R)-2,3-Difluoro-1-hydroxy-7-methylsulfonylindan-4-yl]oxy-5-fluorobenzonitrile (PT2977), a Hypoxia-Inducible Factor 2α (HIF-2α) Inhibitor for the Treatment of Clear Cell Renal Cell Carcinoma” (J Med Chem, 2019)
Calls of active or inactive are those of the source. The rule behind the calls is not given here.

How the values were obtained:
[1] = target: Protein kinase C gamma type (Homo sapiens) (UniProt P05129); experiment: Activity at human PKCgamma at 10 uM
[2] = Plasma concentration in patient with advanced solid tumor at 40 mg, po administered once daily measured on day 15 after 24 hrs; type: ADME, organism-based; conditions: human
Cytochrome P450 1A2 = Cytochrome P450 1A2 (Homo sapiens, UniProt P05177); experiment: Inhibition of CYP1A2 in human liver microsomes up to 50 uM using phenacetin as substrate measured after 10 mins in presence of NADPH by LC-MS/MS analysis; type: ADME
[3] = target: D(1B) dopamine receptor (Homo sapiens) (UniProt P21918); experiment: Activity at human D5 receptor at 10 uM
Cytochrome P450 2C19 = Cytochrome P450 2C19 (Homo sapiens, UniProt P33261); experiment: Inhibition of CYP2C19 in human liver microsomes up to 50 uM using S-mephenytoin as substrate measured after 20 mins in presence of NADPH by LC-MS/MS analysis; type: ADME
[4] = target: C-C chemokine receptor type 1 (Homo sapiens) (UniProt P32246); experiment: Activity at human CCR1 receptor at 10 uM
[5] = target: Potassium voltage-gated channel subfamily A member 5 (Homo sapiens) (UniProt P22460); experiment: Activity at human Kv1.5 at 10 uM
[6] = Clearance in monkey at 1 mg/kg, iv by UPLC-MS analysis; type: ADME, organism-based, Macaca mulatta; conditions: rhesus monkey, in vivo
[7] = Half life in patient with advanced solid tumor at 40 mg, po administered once daily measured on day 15; type: ADME, organism-based; conditions: human, in vivo
[8] = target: Protein kinase C alpha type (Homo sapiens) (UniProt P17252); experiment: Activity at human PKCalpha at 10 uM
[9] = target: Adenosine receptor A1 (Homo sapiens) (UniProt P30542); experiment: Activity at human adenosine A1 receptor at 10 uM
[10] = target: Endothelin-1 receptor (Homo sapiens) (UniProt P25101); experiment: Activity at human ETA receptor at 10 uM
[11] = target: Vasopressin V2 receptor (Homo sapiens) (UniProt P30518); experiment: Activity at human V2 receptor at 10 uM
[12] = Protein binding in mouse plasma at 10 uM measured after 4 hrs by LC-MS/MS analysis; type: ADME, cell-free; conditions: read-out: PPB (converted)
[13] = target: Rho-associated protein kinase 2 (Homo sapiens) (UniProt O75116); experiment: Activity at human ROCK2 at 10 uM
[14] = target: Muscarinic acetylcholine receptor M1 (Homo sapiens) (UniProt P11229); experiment: Activity at human M1 receptor at 10 uM
[15] = Clearance in Sprague-Dawley rat at 1 mg/kg, iv by UPLC-MS analysis; type: ADME, organism-based; conditions: in vivo
[16] = target: Cyclin-dependent kinase 1/cyclin B1 (Homo sapiens) (UniProt P06493+P14635); experiment: Activity at human CDK1/cyclinB at 10 uM; type: protein-complex assay
[17] = Toxicity in patient with advanced solid tumor assessed as anemia at 20 to 240 mg, po administered once daily; type: organism-based; conditions: human, in vivo
[18] = target: Neuropeptide Y receptor type 2 (Homo sapiens) (UniProt P49146); experiment: Activity at human NPY2 receptor at 10 uM
[19] = Half life in patient with advanced solid tumor at 240 mg, po administered once daily measured on day 15; type: ADME, organism-based; conditions: human, in vivo
[20] = target: C-C chemokine receptor type 2 (Homo sapiens) (UniProt P41597); experiment: Activity at human CCR2B receptor at 10 uM
786-0 = experiment: Antitumor activity against human 786-O cells xenografted in SCID Beige mouse assessed as tumor regression at 0.3 to 3 mg/kg, po administered twice daily via gavage for 3 days measured 12 hrs post-last; type: functional, organism-based
[21] = target: Voltage-gated L-type calcium channel (Homo sapiens, UniProt Q13936+Q13698+Q01668+O60840); experiment: Activity at human L-type calcium channel at 10 uM; type: protein assay
UGT2B17 = target: T1, UGT2B17 (Homo sapiens, UniProt O75795); experiment: Substrate activity at UGT2B17 in human intestinal microsomes assessed as enzyme-mediated glucuronidation by measuring Km at 2 to 1000 uM preincubated for 5 mins followed by UDPGA addition and measured after 60 mins by LC-MS/MS analysis; type: ADME, Intestine
T1 sequence (O75795 whole entry): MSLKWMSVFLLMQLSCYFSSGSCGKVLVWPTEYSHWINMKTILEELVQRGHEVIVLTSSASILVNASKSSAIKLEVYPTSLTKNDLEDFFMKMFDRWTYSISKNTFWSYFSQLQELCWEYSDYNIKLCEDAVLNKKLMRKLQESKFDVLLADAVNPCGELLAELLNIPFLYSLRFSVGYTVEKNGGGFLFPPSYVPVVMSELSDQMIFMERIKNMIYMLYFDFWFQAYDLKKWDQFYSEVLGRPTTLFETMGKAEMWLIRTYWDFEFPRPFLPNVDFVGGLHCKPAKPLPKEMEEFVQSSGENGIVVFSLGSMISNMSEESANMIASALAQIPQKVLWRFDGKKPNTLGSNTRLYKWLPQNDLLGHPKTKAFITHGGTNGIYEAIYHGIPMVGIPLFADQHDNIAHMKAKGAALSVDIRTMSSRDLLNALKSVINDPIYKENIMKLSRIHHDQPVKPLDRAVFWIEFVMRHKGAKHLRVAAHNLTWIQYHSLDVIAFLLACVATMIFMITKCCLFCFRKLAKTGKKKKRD

[22] = target: fMet-Leu-Phe receptor (Homo sapiens) (UniProt P21462); experiment: Activity at human FPR1 receptor at 10 uM
[23] = Half life in patient with advanced solid tumor at 20 mg, po administered once daily measured on day 15; type: ADME, organism-based; conditions: human, in vivo
[24] = Cmax in patient with advanced solid tumor at 120 mg, po administered once daily measured on day 15; type: ADME, organism-based; design: dose 120 mg, route oral; conditions: human, in vivo
[25] = target: Protein kinase C theta type (Homo sapiens) (UniProt Q04759); experiment: Activity at human PKCtheta at 10 uM
[26] = target: Prolactin-releasing peptide receptor (Homo sapiens) (UniProt P49683); experiment: Activity at human PRP receptor at 10 uM
[27] = target: 5'-AMP-activated protein kinase catalytic subunit alpha-1 (Homo sapiens) (UniProt Q13131); experiment: Activity at human AMPKalpha1 at 10 uM
[28] = Cmax in patient with advanced solid tumor at 160 mg, po administered once daily measured on day 15; type: ADME, organism-based; design: dose 160 mg, route oral; conditions: human, in vivo
[29] = target: Substance-P receptor (Homo sapiens) (UniProt P25103); experiment: Activity at human NK1 receptor at 10 uM
[30] = target: CDK3/Cyclin E (Homo sapiens) (UniProt P24864+Q00526); experiment: Activity at human CDK3/cyclinE at 10 uM; type: protein-complex assay
[31] = target: Tyrosine-protein phosphatase non-receptor type 2 (Homo sapiens) (UniProt P17706); experiment: Activity at human TCPTP at 10 uM
Homo sapiens = species on record: Homo sapiens; experiment: Activity at human BB2 receptor at 10 uM
[32] = target: Insulin receptor (Homo sapiens) (UniProt P06213); experiment: Activity at human IR at 10 uM
[33] = target: Muscarinic acetylcholine receptor M3 (Homo sapiens) (UniProt P20309); experiment: Activity at human M3 receptor at 10 uM

Chain of Endothelin-1 receptor (Homo sapiens) (P25101 whole entry): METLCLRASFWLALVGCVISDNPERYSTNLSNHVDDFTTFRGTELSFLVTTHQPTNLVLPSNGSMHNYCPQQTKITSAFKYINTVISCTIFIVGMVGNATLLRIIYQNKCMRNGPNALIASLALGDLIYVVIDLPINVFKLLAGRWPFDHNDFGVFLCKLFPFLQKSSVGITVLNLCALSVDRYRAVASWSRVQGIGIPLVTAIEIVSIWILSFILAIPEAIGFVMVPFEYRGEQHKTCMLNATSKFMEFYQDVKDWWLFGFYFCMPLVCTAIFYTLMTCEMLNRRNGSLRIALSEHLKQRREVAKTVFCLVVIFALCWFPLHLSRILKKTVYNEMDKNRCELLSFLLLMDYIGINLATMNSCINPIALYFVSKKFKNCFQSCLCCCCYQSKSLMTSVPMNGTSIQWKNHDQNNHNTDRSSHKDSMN
Chain of Adenosine receptor A1 (Homo sapiens) (P30542 whole entry): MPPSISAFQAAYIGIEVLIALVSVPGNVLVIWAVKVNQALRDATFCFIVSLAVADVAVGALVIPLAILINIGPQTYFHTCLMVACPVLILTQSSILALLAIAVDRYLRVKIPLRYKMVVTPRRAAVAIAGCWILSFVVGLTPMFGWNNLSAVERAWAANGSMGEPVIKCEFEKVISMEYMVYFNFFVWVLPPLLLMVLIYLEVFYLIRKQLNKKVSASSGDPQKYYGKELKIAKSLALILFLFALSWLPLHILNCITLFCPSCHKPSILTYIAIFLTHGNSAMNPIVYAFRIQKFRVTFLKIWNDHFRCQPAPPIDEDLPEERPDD
Chain of Vasopressin V2 receptor (Homo sapiens) (P30518 whole entry): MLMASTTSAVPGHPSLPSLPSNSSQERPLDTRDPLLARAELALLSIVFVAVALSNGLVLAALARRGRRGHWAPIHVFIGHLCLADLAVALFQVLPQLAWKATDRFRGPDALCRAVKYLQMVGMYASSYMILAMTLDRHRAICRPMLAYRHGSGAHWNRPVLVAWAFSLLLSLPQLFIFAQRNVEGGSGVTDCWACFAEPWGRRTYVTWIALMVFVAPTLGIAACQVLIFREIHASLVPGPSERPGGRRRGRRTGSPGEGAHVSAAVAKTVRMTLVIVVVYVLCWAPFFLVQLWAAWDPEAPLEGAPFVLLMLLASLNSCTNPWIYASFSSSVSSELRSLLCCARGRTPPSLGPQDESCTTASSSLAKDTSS
Chain of Cytochrome P450 1A2 (P05177 whole entry): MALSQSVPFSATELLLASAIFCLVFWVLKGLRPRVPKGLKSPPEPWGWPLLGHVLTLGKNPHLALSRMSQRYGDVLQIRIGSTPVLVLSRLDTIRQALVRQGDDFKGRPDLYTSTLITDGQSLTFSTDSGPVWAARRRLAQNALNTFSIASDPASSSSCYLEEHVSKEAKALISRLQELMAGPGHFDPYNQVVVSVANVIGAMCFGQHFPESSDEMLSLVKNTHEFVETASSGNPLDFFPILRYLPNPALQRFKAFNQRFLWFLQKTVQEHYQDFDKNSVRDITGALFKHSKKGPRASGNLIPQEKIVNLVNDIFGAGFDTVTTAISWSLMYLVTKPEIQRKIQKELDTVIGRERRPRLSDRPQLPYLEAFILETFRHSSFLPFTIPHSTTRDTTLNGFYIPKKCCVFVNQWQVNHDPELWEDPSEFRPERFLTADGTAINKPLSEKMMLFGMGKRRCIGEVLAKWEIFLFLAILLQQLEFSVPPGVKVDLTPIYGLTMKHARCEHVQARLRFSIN
Chain of Prolactin-releasing peptide receptor (Homo sapiens) (P49683 whole entry): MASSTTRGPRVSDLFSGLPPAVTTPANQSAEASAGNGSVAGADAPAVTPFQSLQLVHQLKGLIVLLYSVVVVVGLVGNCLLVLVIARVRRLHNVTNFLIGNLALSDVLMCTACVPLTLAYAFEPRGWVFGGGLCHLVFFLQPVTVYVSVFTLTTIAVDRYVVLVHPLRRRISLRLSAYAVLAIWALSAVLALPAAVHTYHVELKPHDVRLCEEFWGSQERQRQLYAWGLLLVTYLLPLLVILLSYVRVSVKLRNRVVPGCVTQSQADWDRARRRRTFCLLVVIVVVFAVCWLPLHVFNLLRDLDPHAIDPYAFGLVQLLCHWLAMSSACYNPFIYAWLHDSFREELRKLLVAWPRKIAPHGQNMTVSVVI
Chain of fMet-Leu-Phe receptor (Homo sapiens) (P21462 whole entry): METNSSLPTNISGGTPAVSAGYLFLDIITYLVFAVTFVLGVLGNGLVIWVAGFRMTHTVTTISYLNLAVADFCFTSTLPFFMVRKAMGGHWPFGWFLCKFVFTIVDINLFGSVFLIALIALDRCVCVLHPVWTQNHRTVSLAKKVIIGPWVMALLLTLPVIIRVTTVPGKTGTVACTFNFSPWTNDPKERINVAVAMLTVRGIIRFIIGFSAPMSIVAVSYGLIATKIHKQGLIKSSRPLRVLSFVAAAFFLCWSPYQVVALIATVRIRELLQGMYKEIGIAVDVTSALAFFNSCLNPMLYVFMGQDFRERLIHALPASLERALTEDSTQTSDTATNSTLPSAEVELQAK
Chain of Muscarinic acetylcholine receptor M1 (Homo sapiens) (P11229 whole entry): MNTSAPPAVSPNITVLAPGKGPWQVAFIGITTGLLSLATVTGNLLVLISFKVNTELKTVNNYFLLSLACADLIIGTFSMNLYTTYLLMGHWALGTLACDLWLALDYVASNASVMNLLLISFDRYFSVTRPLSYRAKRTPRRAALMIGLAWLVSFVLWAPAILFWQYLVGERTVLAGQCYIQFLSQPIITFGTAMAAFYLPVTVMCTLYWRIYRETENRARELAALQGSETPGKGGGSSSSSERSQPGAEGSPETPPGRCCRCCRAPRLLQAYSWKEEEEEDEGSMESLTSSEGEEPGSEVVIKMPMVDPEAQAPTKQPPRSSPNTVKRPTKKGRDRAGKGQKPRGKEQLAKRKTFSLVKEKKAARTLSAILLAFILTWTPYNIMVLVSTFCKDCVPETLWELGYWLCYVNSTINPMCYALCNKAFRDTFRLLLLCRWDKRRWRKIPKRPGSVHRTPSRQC
Chain of D(1B) dopamine receptor (Homo sapiens) (P21918 whole entry): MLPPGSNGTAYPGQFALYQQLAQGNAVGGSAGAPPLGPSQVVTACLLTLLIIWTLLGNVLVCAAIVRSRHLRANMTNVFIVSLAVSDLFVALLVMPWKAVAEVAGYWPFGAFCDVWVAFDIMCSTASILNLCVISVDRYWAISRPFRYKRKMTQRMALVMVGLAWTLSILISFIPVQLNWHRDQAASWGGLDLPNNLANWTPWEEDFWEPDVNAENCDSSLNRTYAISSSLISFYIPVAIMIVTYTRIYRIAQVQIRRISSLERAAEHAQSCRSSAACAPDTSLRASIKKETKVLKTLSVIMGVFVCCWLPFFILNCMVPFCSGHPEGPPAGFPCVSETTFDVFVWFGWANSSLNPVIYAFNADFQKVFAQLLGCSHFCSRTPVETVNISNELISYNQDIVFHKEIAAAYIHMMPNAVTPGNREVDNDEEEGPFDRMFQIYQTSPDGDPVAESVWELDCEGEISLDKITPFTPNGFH

- Activity [1]: inactive
- concentration at 24 h [2]: 190 ng/mL
- inhibition (INH) (Cytochrome P450 1A2): Not Active
- Activity [3]: inactive
- inhibition (INH) (Cytochrome P450 2C19): Not Active
- Activity [4]: inactive
- Activity [5]: inactive
- clearance [6]: 3.5 mL/min/kg
- half-life [7]: 18.8 h
- Activity [8]: inactive
- Activity [9]: inactive
- Activity [10]: inactive
- Activity [11]: inactive
- fraction unbound at 4 h, 10 µM [12]: 0.44
- Activity [13]: inactive
- Activity [14]: inactive
- clearance [15]: 19 mL/min/kg
- Activity [16]: inactive
- Activity [18]: inactive
- half-life [19]: 14.1 h
- Activity [20]: inactive
- Activity [21]: Not Active
- Km at 1 h, up to 1000 µM (UGT2B17): 15 µM
- Activity [22]: inactive
- half-life [23]: 12.5 h
- Cmax [24]: 1800 ng/mL
- Activity [25]: inactive
- Activity [26]: inactive
- Activity [27]: inactive
- Cmax [28]: 2000 ng/mL
- Activity [29]: inactive
- Activity [30]: inactive
- Activity [31]: inactive
- Activity (Homo sapiens): inactive
- Activity [32]: inactive
- Activity [33]: inactive
Compound: CS(=O)(=O)c1ccc(Oc2cc(F)cc(C#N)c2)c2c1[C@H](O)[C@H](F)[C@@H]2F [BELZUTIFAN]
- Activity [17]: Non-Toxic
- Activity (786-0): Active
